# Experimental data from patent US20230035688A1, “METHOD FOR TREATING GASTRIC CANCER BY BLOCKING CCL28 CHEMOTACTIC PATHWAY” (SHANGHAI JIAO TONG UNIVERSITY, priority 2019, published 2023).
# How the values were obtained:
# colon tumor cell lines = details: cited from earlier work
# CCL28 promoter = CCL28 promoter luciferase reporter gene activity with β-catenin overexpression; assay type: cell-based, human; details: FIG. 2D
# Text: (§1) Wnt/β-catenin reporter plasmid M50 Super 8X TOPFlash (Addgene plasmid #12456) and mutant control M51 Super 8X FOPFlash (Addgene plasmid #12457) are gifts from Randall Moon. The promoter of the human CCL28 gene (2.8 kb, −2576/+205 relative to the transcriptional start site) was cloned into the firefly luciferase reporter gene construct pGL4. Mutations of potential TCF/LEF binding sites on the CCL28 promoter were introduced using the Hieff Mut™ Multisite Directed Mutagenesis Kit (Yeasen, Shanghai) to produce a mutant CCL28 promoter report construct (pGL4-CCL28.mut). The plasmids were transfected using a jetPRIME transfection reagent (Polybus Transfection). Transfection efficiency was standardized by co-transfection with a pRL-CMV reporter gene containing the Ranilla Luciferase gene. Firefly and Ranilla luciferase activities were measured using a Dual-Glo luciferase assay system (Promega).
# (§2) In this Example, the correlation between CCL28 and β-catenin signaling pathway structure is analyzed in combination with bioinformatics, and then the relationship between the two is verified in the cell model. […] After using β-catenin/TCF, the transcriptional activity of CCL28 promoter was detected after shRNA knockdown of TCF/LEF transcription factor family members or overexpression of TCF/LEF members.
# CCL28 protein = CCL28 protein expression in stomach of H. felis/MNU in situ gastric cancer mice (Western blotting, ELISA); assay type: in vivo, mouse; details: intraperitoneal injection; Western blotting (FIG. 3A) and ELISA (FIG. 3B)
# Text: The proteins in gastric cancer cell line and mouse gastric tissue were lysed with RIPA lysate (Thermo Scientific) added with protease inhibitor (Roche), and the protein concentration was detected using BCA Protein Assay Reagent (Thermo Scientific). The detected proteins were as follows: β-catenin (Abcam), CCL28 (R & D Systems), active β-catenin (Merck), GAPDH (Abcam) and β-tubulin (Abcam).
# In order to establish gastric cancer mouse mode induced by Helicobacter felis (H. felis) and N-Methyl-N-nitrosourea (MNU), 8-week-old wild-type mice were fed by gavage with H. felis strain (ATCC 49179) three times a week, followed by given drinking water containing 240 ppm MNU every other week for a total of 12 weeks.
# [1] = system: Wnt pathway reporter gene TOPflash; assay: Wnt pathway reporter gene TOPflash luciferase activity with β-catenin overexpression; assay type: cell-based, human; details: FIG. 2D
# Text: as §1, §2
smiles,measurement,setting,value
Cc1cc(/C=C2\SC(=O)N(c3ccccc3)C2=O)c(C)n1-c1cccnc1 [iCRT14],cell cycle arrest,colon tumor cell lines,G0/G1 arrest
same,up-regulation effect of β-catenin on CCL28 promoter activity,CCL28 promoter,reduces the up-regulation effect of β-catenin on CCL28 promoter activity
same,expression of CCL28 protein in the stomach,CCL28 protein,significantly reduces the expression of CCL28 protein in the stomach
same,activity of Wnt pathway reporter gene TOPflash,[1],reduced the activity of both reporter genes
